Data: article PMC7873251, “CXCR7 ameliorates myocardial infarction as a β-arrestin-biased receptor” (Scientific Reports, 2021)
Entries after “also recorded” stand apart in the source; their conditions may differ.

Tests used:
human CXCR7 = molecular target: T1, human CXCR7 (Homo sapiens, UniProt P25106); experiment: β-arrestin recruitment assay of CXCR7 (luminescence, HEK293); assay type: cell-based; details: HEK293 cells transfected with human β-arrestin-2-ω and human CXCR7-α, 37 °C for 90 min, then Gal-Screen 25 °C 90 min, n = 3 independent, read-out: EC50 for coupling of CXCR7 with β-arrestin (β-arrestin recruitment)
T1 construct: expressed in transfected cells; host or cells: HEK293 cells (ATCC CRL-11268)
Procedure: HEK293 cells (ATCC CRL-11268) were used for the β-arrestin recruitment assay, as previously described[52]. In brief, HEK293 cells were transfected with human β-arrestin-2-ω and human CXCR7-α. […] Luminescence was measured in an ARVO X3 plate reader (PerkinElmer, Waltham, MA, USA).

ERK = ERK phosphorylation (pERK/tERK immunoblot) in neonatal rat cardiomyocytes (NRCMs); assay type: cell-based, rat (Wistar); details: 30-min pretreatment with barbadin (50 M [sic]), then 10 min TC14012 (printed 3 M), n = 4
Procedure: NRCMs and neonatal rat fibroblasts were prepared from 1-day-old Wistar rats (Takasugi Experimental Animal Supply Co., Saitama, Japan), as previously described. Briefly, cardiac cells were dispersed by digestion with collagenase type II (Worthington Biochemical, Lakewood, NJ, USA) and incubated at 37 °C for 80 min to divide the supernatant cells, which are rich in cardiomyocytes, and the attached cells, which are rich in cardiac fibroblasts. The supernatant NRCMs were cultured on gelatin-coated dishes at 37 °C in Dulbecco’s modified Eagle’s medium (DMEM; Nacalai Tesque, Kyoto, Japan) supplemented with 10% fetal calf serum for 36 h and confirmed on the basis of beating activity. After 12 h of starvation, the NRCMs were treated with TC14012 (Tocris Bioscience, Bristol, UK). Attached cells rich in cardiac fibroblasts were subcultured three times to increase their purity. We added vehicle (DMSO) or barbadin (MedChemExpress, New Jersey, USA) 30 min before stimulation.
Western blotting was performed as previously described. […] Signals were detected with the Pierce ECL Prime system (GE Healthcare) in a LAS4000 instrument (GE Healthcare). Band densities were analyzed using the ImageJ software (National Institutes of Health, Bethesda, MD, USA).

adrenergic receptors = details: cited from earlier work
Excerpt: (§1) There are many seven-transmembrane receptors (7TMRs), such as adrenergic receptors and angiotensin II receptors, in the heart, and they play various critical roles in cardiac function and morphology[1],[2]. […] The roles of ACKRs are largely unknown, and only ACKR3, also known as CXC chemokine receptor 7 (CXCR7), has be ...

heart failure patients = details: cited from earlier work
Excerpt: as §1

[1] = tested on: CC chemokine receptor 2-positive macrophages; details: pressure-overload heart failure model; cited from earlier work
Excerpt: (§2) Recently, the importance of chemokines and their receptors in cardiovascular diseases has been pointed out.

[2] = tested on: ERK (via rat CXCR7 expression plasmid); experiment: ERK phosphorylation (pERK/tERK immunoblot) in CXCR7-transfected HEK293 cells; assay type: cell-based, HEK293 cells (human embryonic kidney); details: CXCL12 100 nM
Procedure: HEK293 cells (ATCC CRL-11268) were used for the β-arrestin recruitment assay, as previously described. In brief, HEK293 cells were transfected with human β-arrestin-2-ω and human CXCR7-α. […] Luminescence was measured in an ARVO X3 plate reader (PerkinElmer, Waltham, MA, USA). In addition, HEK293 cells were transfected with a rat CXCR7 expression plasmid using Lipofectamine 3000 (Thermo Fisher Scientific). The CXCR7 expression plasmid was synthesized by amplifying a rat Cxcr7 mRNA sequence (RefSeq: NM_053352.1) with a FLAG tag (forward primer: 5′-[…]-3′, reverse primer: 5′-[…]-3′) from cDNA prepared from total RNA isolated from neonatal rat heart and inserting it in pShuttle-CMV (#16403, Addgene, Watertown, MA, USA). The cells were cultured for 36 h.
Western blotting was performed as previously described. Tissues and cells were homogenized in ice-cold RIPA buffer containing protease inhibitor (cOmplete Protease Inhibitor Cocktail, Merck) and phosphatase inhibitor (PhosSTOP, Sigma). Supernatants were collected after centrifugation and mixed with an equal amount of loading buffer (125 mM Tris–HCl pH 6.8, 30% glycerol, 10% SDS, and 0.6 M DTT). […] Signals were detected with the Pierce ECL Prime system (GE Healthcare) in a LAS4000 instrument (GE Healthcare). Band densities were analyzed using the ImageJ software (National Institutes of Health, Bethesda, MD, USA).

CXCR4 = details: via CXCR4; cited from earlier work
Excerpt: as §2

[3] = tested on: type 1 angiotensin II receptor; details: cited from earlier work
Excerpt: There are many seven-transmembrane receptors (7TMRs), such as adrenergic receptors and angiotensin II receptors, in the heart, and they play various critical roles in cardiac function and morphology[1],[2]. […] The roles of ACKRs are largely unknown, and only ACKR3, also known as CXC chemokine receptor 7 (CXCR7), has be ... || There are numerous reports on biased agonists. Biased agonism occurs when two ligands share one receptor, but transmit different signals. […] However, there are a few natural β-arrestin-biased agonists and very few 7TMRs that activate intracellular signaling only through β-arr ...

cardiac hypertrophy = details: cited from earlier work
Excerpt: There are numerous reports on biased agonists. Biased agonism occurs when two ligands share one receptor, but transmit different signals. […] However, there are a few natural β-arrestin-biased agonists and very few 7TMRs that activate intracellular signaling only through β-arr ...

[4] = tested on: CC chemokine receptor-like 2 (CCRL2); details: cited from earlier work
Excerpt: In this study, we focused on CXCR7 because of its abundant expression in the heart and its unique character as a 7TMR. […] As a 7TMR, the β1-adrenergic receptor plays critical roles in the heart[21],[22]; however, its expression level was tenfold lower than that of Cxcr7.

T1 sequence (P25106 whole entry): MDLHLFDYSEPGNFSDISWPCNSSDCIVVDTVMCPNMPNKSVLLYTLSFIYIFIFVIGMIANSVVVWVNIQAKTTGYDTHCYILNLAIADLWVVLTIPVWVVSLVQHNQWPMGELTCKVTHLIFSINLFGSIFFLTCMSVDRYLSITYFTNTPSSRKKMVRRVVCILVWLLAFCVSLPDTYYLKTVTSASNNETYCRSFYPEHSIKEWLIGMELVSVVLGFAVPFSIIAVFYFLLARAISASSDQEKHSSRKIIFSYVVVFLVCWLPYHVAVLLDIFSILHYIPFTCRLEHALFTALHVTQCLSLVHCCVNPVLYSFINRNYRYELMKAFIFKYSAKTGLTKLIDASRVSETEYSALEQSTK
T1 sequence (P32121 whole entry partner): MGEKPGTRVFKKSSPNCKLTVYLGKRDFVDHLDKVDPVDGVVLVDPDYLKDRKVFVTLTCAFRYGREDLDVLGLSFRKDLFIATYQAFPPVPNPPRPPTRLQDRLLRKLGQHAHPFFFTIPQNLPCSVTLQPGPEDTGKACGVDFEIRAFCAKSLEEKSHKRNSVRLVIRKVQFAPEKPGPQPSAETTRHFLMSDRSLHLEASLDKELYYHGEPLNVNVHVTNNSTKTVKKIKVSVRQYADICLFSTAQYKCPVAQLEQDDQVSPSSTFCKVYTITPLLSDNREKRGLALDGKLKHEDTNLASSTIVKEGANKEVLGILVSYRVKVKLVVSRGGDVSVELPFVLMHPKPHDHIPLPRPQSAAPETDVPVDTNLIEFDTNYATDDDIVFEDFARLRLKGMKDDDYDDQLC

## N=C(N)NCCC[C@H](NC(=O)[C@@H]1CSSC[C@H](NC(=O)[C@H](Cc2ccc3ccccc3c2)NC(=O)[C@H](CCCNC(=N)N)NC(=O)[C@@H](N)CCCNC(=N)N)C(=O)N[C@@H](Cc2ccc(O)cc2)C(=O)N[C@@H](CCCNC(N)=O)C(=O)N[C@@H](CCCCN)C(=O)N[C@H](CCCNC(N)=O)C(=O)N2CCC[C@H]2C(=O)N[C@@H](Cc2ccc(O)cc2)C(=O)N[C@@H](CCCNC(=N)N)C(=O)N[C@@H](CCCNC(N)=O)C(=O)N1)C(N)=O [TC14012]
Human CXCR7
  EC50: 47.4 nM

## Nn1cnc2scc(-c3ccc(Cc4ccccc4)cc3)c2c1=O [barbadin]
ERK
  inhibition of TC14012-induced ERK activation: abolished TC14012-induced ERK activation; also recorded: completely suppressed

## COc1ccccc1OCCNCC(O)COc1cccc2[nH]c3ccccc3c12 (centres unmarked) [carvedilol]
Adrenergic receptors
  adrenergic receptor blockade and β-arrestin signaling: not only blocks adrenergic receptors, but also activates cardioprotective signals, including ERK, through β-arrestin
Heart failure patients
  effectiveness in heart failure patients: very effective for the treatment of heart failure patients

## CC chemokine ligand 2: chemokine that induced accumulation of CC chemokine receptor 2-positive macrophages
[1]
  accumulation of CCR2-positive macrophages: induced the accumulation of CC chemokine receptor 2-positive macrophages

## CXCL12: a natural ligand of CXCR4 and CXCR7
[2]; HEK293 cells with CXCR7 expression plasmid, n = 4
  time of peak ERK activity after stimulation: 5 min
[2]; HEK293 cells, rat CXCR7 expression plasmid (various amounts), n = 3
  ERK activation (pERK/tERK): activated ERK in a CXCR7 expression plasmid-dose-dependent manner
CXCR4
  protection of the heart from hypoxia: protects the heart from hypoxia

## angiotensin-(1-7): a metabolite of angiotensin II
[3]
  G protein versus β-arrestin activation compared with angiotensin II: binds to type 1 angiotensin II receptor, but fails to activate G proteins, and selectively promotes β-arrestin activation compared with angiotensin II
Cardiac hypertrophy
  cardiac hypertrophy: attenuates cardiac hypertrophy

## chemerin: ligand of CCRL2
[4]
  binding to CCRL2: it does not bind to chemokines, but to chemerin
